Test system: A375 multi-cell spheroids with HUVEC/MSC, viability
Test: Anticancer human tumor A375 cell line growth inhibition [GQUAD];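 note: spheroids exposed to compounds for seven days before readout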
Conditions: for IC50: curve of first compound; for viability, T/C: stronger effect = lower value
Outline: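 Tumor cells were grown as complex spheroids with HUVEC endothelial cells and mesenchymal stem cells as stroma. G-quadruplex stabilizers were combined with targeted agents over half-log dilutions from near the clinical Cmax, or from 10 microM.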

[1] = second compound 0.0316 µM, first compound 0.0316 µM
[2] = second compound 0.0316 µM, first compound 0.316 µM
[3] = second compound 0.1 µM, first compound 0.0316 µM
[4] = second compound 0.1 µM, first compound 0.316 µM
[5] = second compound 0.316 µM, first compound 0.0316 µM
[6] = second compound 0.316 µM, first compound 0.316 µM
[7] = second compound 1 µM, first compound 0.0316 µM
[8] = second compound 1 µM, first compound 0.316 µM
[9] = second compound 3.16 µM, first compound 0.0316 µM
[10] = second compound 3.16 µM, first compound 0.316 µM
[11] = second compound 10 µM, first compound 0.0316 µM
[12] = second compound 10 µM, first compound 0.316 µM
[13] = second compound 0.0316 µM, first compound 0.000999 µM
[14] = second compound 0.0316 µM, first compound 0.00316 µM
[15] = second compound 0.0316 µM, first compound 0.00999 µM
[16] = second compound 0.0316 µM, first compound 0.0999 µM
[17] = second compound 0.1 µM, first compound 0.000999 µM
[18] = second compound 0.1 µM, first compound 0.00316 µM
[19] = second compound 0.1 µM, first compound 0.00999 µM
[20] = second compound 0.1 µM, first compound 0.0999 µM
[21] = second compound 0.316 µM, first compound 0.000999 µM
[22] = second compound 0.316 µM, first compound 0.00316 µM
[23] = second compound 0.316 µM, first compound 0.00999 µM
[24] = second compound 0.316 µM, first compound 0.0999 µM
[25] = second compound 1 µM, first compound 0.000999 µM
[26] = second compound 1 µM, first compound 0.00316 µM
[27] = second compound 1 µM, first compound 0.00999 µM
[28] = second compound 1 µM, first compound 0.0999 µM
[29] = second compound 3.16 µM, first compound 0.000999 µM
[30] = second compound 3.16 µM, first compound 0.00316 µM
[31] = second compound 3.16 µM, first compound 0.00999 µM
[32] = second compound 3.16 µM, first compound 0.0999 µM
[33] = second compound 10 µM, first compound 0.000999 µM
[34] = second compound 10 µM, first compound 0.00316 µM
[35] = second compound 10 µM, first compound 0.00999 µM
[36] = second compound 10 µM, first compound 0.0999 µM

With C=CC(=O)N1CCN(c2nc(=O)n(-c3c(C)ccnc3C(C)C)c3nc(-c4c(O)cccc4F)c(F)cc23)C(C)C1 (stereo unspecified) + CN(C)c1ccc(Nc2c3ccc(NC(=O)CCN4CCCC4)cc3nc3cc(NC(=O)CCN4CCCC4)ccc23)cc1 the IC50 (second compound 0.0316 µM) was > 10000 nM, the IC50 (second compound 0.1 µM) was > 10000 nM and the IC50 (second compound 0.316 µM) was > 10000 nM. For the same compound, the IC50 (second compound 1 µM) was > 10000 nM, the IC50 (second compound 3.16 µM) was > 10000 nM and the IC50 (second compound 10 µM) was > 10000 nM. For the same compound, the viability, T/C [1] was 107%, the viability, T/C (second compound 0.0316 µM, first compound 0.1 µM) was 95.4% and the viability, T/C [2] was 94.9%. It also gave a viability, T/C (second compound 0.0316 µM, first compound 1 µM) of 95.1%, a viability, T/C (second compound 0.0316 µM, first compound 3.16 µM) of 110% and a viability, T/C (second compound 0.0316 µM, first compound 10 µM) of 123%. For the same compound, the viability, T/C [3] was 108%, the viability, T/C (second compound 0.1 µM, first compound 0.1 µM) was 96.8% and the viability, T/C [4] was 103%. For the same compound, the viability, T/C (second compound 0.1 µM, first compound 1 µM) was 95.4%, the viability, T/C (second compound 0.1 µM, first compound 3.16 µM) was 98.6% and the viability, T/C (second compound 0.1 µM, first compound 10 µM) was 119%. For the same compound, the viability, T/C [5] was 95.1%, the viability, T/C (second compound 0.316 µM, first compound 0.1 µM) was 94.7% and the viability, T/C [6] was 90.6%. It also gave a viability, T/C (second compound 0.316 µM, first compound 1 µM) of 101%, a viability, T/C (second compound 0.316 µM, first compound 3.16 µM) of 101% and a viability, T/C (second compound 0.316 µM, first compound 10 µM) of 128%. It also gave a viability, T/C [7] of 97.7%, a viability, T/C (second compound 1 µM, first compound 0.1 µM) of 92.2% and a viability, T/C [8] of 94.8%. It also gave a viability, T/C (second compound 1 µM, first compound 1 µM) of 102%, a viability, T/C (second compound 1 µM, first compound 3.16 µM) of 109% and a viability, T/C (second compound 1 µM, first compound 10 µM) of 133%. For the same compound, the viability, T/C [9] was 98.7%, the viability, T/C (second compound 3.16 µM, first compound 0.1 µM) was 90.7% and the viability, T/C [10] was 92.3%. It also gave a viability, T/C (second compound 3.16 µM, first compound 1 µM) of 93.4%, a viability, T/C (second compound 3.16 µM, first compound 3.16 µM) of 103% and a viability, T/C (second compound 3.16 µM, first compound 10 µM) of 126%. The viability, T/C [11] was 99.9%, the viability, T/C (second compound 10 µM, first compound 0.1 µM) was 92.2% and the viability, T/C [12] was 99.8%. For the same compound, the viability, T/C (second compound 10 µM, first compound 1 µM) was 100%, the viability, T/C (second compound 10 µM, first compound 3.16 µM) was 108% and the viability, T/C (second compound 10 µM, first compound 10 µM) was 107%.
Compound CC[C@@]1(O)C(=O)OCc2c1cc1n(c2=O)Cc2cc3c(CN(C)C)c(O)ccc3nc2-1 + CN(C)c1ccc(Nc2c3ccc(NC(=O)CCN4CCCC4)cc3nc3cc(NC(=O)CCN4CCCC4)ccc23)cc1 has an IC50 (second compound 0.0316 µM) of 44.7 nM, an IC50 (second compound 0.1 µM) of 45.3 nM and an IC50 (second compound 0.316 µM) of 39.6 nM. For the same compound, the IC50 (second compound 1 µM) was 47.4 nM, the IC50 (second compound 3.16 µM) was 49.5 nM and the IC50 (second compound 10 µM) was 45.9 nM. For the same compound, the viability, T/C [13] was 104%, the viability, T/C [14] was 107% and the viability, T/C [15] was 104%. The viability, T/C [1] was 63.4%, the viability, T/C [16] was 18.5% and the viability, T/C [2] was 9.04%. It also gave a viability, T/C [17] of 112%, a viability, T/C [18] of 105% and a viability, T/C [19] of 96.2%. It also gave a viability, T/C [3] of 64.2%, a viability, T/C [20] of 20.4% and a viability, T/C [4] of 10.9%. For the same compound, the viability, T/C [21] was 101%, the viability, T/C [22] was 107% and the viability, T/C [23] was 108%. The viability, T/C [5] was 58%, the viability, T/C [24] was 19.8% and the viability, T/C [6] was 10.9%. For the same compound, the viability, T/C [25] was 114%, the viability, T/C [26] was 106% and the viability, T/C [27] was 102%. For the same compound, the viability, T/C [7] was 67%, the viability, T/C [28] was 18.9% and the viability, T/C [8] was 9.06%. The viability, T/C [29] was 103%, the viability, T/C [30] was 102% and the viability, T/C [31] was 102%. The viability, T/C [9] was 68.8%, the viability, T/C [32] was 20.6% and the viability, T/C [10] was 12.7%. For the same compound, the viability, T/C [33] was 102%, the viability, T/C [34] was 103% and the viability, T/C [35] was 107%. It also gave a viability, T/C [11] of 63.2%, a viability, T/C [36] of 22.4% and a viability, T/C [12] of 9.58%.
For CCc1c2c(nc3ccc(O)cc13)-c1cc3c(c(=O)n1C2)COC(=O)[C@]3(O)CC + CN(C)c1ccc(Nc2c3ccc(NC(=O)CCN4CCCC4)cc3nc3cc(NC(=O)CCN4CCCC4)ccc23)cc1, the IC50 (second compound 0.0316 µM) was < 0.999 nM, the IC50 (second compound 0.1 µM) was < 0.999 nM and the IC50 (second compound 0.316 µM) was < 0.999 nM. The IC50 (second compound 1 µM) was < 0.999 nM, the IC50 (second compound 3.16 µM) was < 0.999 nM and the IC50 (second compound 10 µM) was < 0.999 nM. For the same compound, the viability, T/C [13] was 41.2%, the viability, T/C [14] was 16.1% and the viability, T/C [15] was 10.6%. The viability, T/C [1] was 15%, the viability, T/C [16] was 5.91% and the viability, T/C [2] was 0.85%. The viability, T/C [17] was 39%, the viability, T/C [18] was 14.4% and the viability, T/C [19] was 11.6%. It also gave a viability, T/C [3] of 13.6%, a viability, T/C [20] of 5.7% and a viability, T/C [4] of 0.92%. It also gave a viability, T/C [21] of 40.8%, a viability, T/C [22] of 14.2% and a viability, T/C [23] of 11.6%. For the same compound, the viability, T/C [5] was 15.8%, the viability, T/C [24] was 5.11% and the viability, T/C [6] was 1.17%. The viability, T/C [25] was 44.3%, the viability, T/C [26] was 17.9% and the viability, T/C [27] was 12.2%. For the same compound, the viability, T/C [7] was 15.3%, the viability, T/C [28] was 5% and the viability, T/C [8] was 0.92%. The viability, T/C [29] was 45.6%, the viability, T/C [30] was 14.8% and the viability, T/C [31] was 10.9%. The viability, T/C [9] was 12.6%, the viability, T/C [32] was 6.28% and the viability, T/C [10] was 1.02%. It also gave a viability, T/C [33] of 46.9%, a viability, T/C [34] of 18.2% and a viability, T/C [35] of 10.9%. For the same compound, the viability, T/C [11] was 13%, the viability, T/C [36] was 6.82% and the viability, T/C [12] was 0.96%.

Reference: PubChem BioAssay AID2060485 (Molecular Pharmacology Branch, DTP, NCI, 2025)
